{"source": "patent US8247211B2", "about": "“Glycopeptide antibiotics” (American Cyanamid Company, priority 2001, dated 2012)", "key": {"[1]": {"tested_on": "Staphylococcus aureus-SMITH (GC 4543)", "experiment": "Acute lethal infection in mice (ED50)", "assay_type": "in vivo", "settings": "female CD-1 mice, intraperitoneal challenge, intravenous dose 30 min. after infection, 7 day survival ratios", "procedure,_shortened": "(§1)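 ED50 derived from pooled 7-day survival in three separate experiments, five mice per dose level. Single intravenous dose 30 min after intraperitoneal infection of female CD-1 mice with enough bacteria to kill untreated animals in 24-48 h.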"}, "[2]": {"tested_on": "Enterococcus faecalis (GC 6189), vancomycin resistant strain", "experiment": "Acute lethal infection in mice (ED50)", "assay_type": "in vivo", "settings": "female CD-1 mice, intraperitoneal challenge, intravenous dose 30 min. after infection, 7 day survival ratios", "procedure,_shortened": "as §1"}, "Escherichia coli": {"tested_on": "Escherichia coli", "experiment": "In vitro antibacterial evaluation: minimum inhibitory concentration (MIC), broth dilution method", "assay_type": "cell-based", "settings": "5×10^5 CFU/mL, 18 hours at 35° C.", "procedure,_shortened": "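Broth dilution per NCCLS M7-A2 in Muller-Hinton II […], inoculum 5×10^5 CFU/mL, antibiotic tested over 64-0.06 μg/mL. MIC is taken as the lowest concentration that inhibits growth. Panel includes recent clinical isolates resistant to methicillin, penicillin and/or vancomycin.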"}, "Enterococcus sp.": {"tested_on": "Enterococcus sp.", "experiment": "In vitro antibacterial evaluation: minimum inhibitory concentration (MIC), broth dilution method", "assay_type": "cell-based", "settings": "broth dilution, 5×10^5 CFU/mL, 18 hours at 35° C.", "procedure,_shortened": "(§2)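 Test strains, among them recent clinical isolates carrying methicillin, penicillin and/or vancomycin resistance, were inoculated at 5×10^5 CFU/mL. A broth dilution series spanning 64-0.06 μg/mL in Muller-Hinton II […] (NCCLS M7-A2) defined the MIC as the lowest growth-inhibiting concentration.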"}, "Staphylococcus sp.": {"tested_on": "Staphylococcus sp.", "experiment": "In vitro antibacterial evaluation: minimum inhibitory concentration (MIC), broth dilution method", "assay_type": "cell-based", "settings": "for MIC Staphylococcus aureus (ATCC 29213): strain ATCC 29213; for MIC Staphylococcus aureus (GC 1131): strain GC 1131; for MIC Staphylococcus aureus (GC 3051): strain GC 3051; for MIC Staphylococcus aureus (GC 3053): strain GC 3053; for MIC Staphylococcus aureus (GC 4541): strain GC 4541; for MIC Staphylococcus aureus (GC 4542): strain GC 4542; for MIC Staphylococcus aureus (GC 4544): strain GC 4544; for MIC Staphylococcus aureus (GC 4545): strain GC 4545", "procedure,_shortened": "as §2"}, "Streptococcus sp.": {"tested_on": "Streptococcus sp.", "experiment": "In vitro antibacterial evaluation: minimum inhibitory concentration (MIC), broth dilution method", "assay_type": "cell-based", "settings": "broth dilution, 5×10^5 CFU/mL, 18 hours at 35° C.", "procedure,_shortened": "as §2"}, "[3]": {"settings": "broth dilution, 5×10^5 CFU/mL, 18 hours at 35° C."}, "[4]": {"settings": "broth dilution, 18 hours at 35° C."}}, "data": [{"smiles": "Cc1cccc(C2OCC3OC(OC4C(CO)OC(Oc5ccc(CC6NC(=O)C(C(C)c7ccccc7)NC(=O)CNC(=O)C(CO)NC(=O)C(C(O)C7CNC(=N)N7C7OC(CO)C(O)C(O)C7O)NC(=O)C(C(O)C7CNC(=N)N7)NC6=O)cc5)C(O)C4O)C(O)C(O)C3O2)c1", "note": "(stereo not drawn) [Example 135, Cyclo[glycyl-β-methylphenylalanyl-O-[4-O-[4,6-O-(3-methylbenzylidene)hexopyranosyl]-hexopyranosyl]tyrosyl-3-(2-iminoimidazolidin-4-yl)seryl-3-(3-hexopyranosyl-2-iminoimidazolidin-4-yl)serylseryl]]", "values": [{"measurement": "median effective dose (ED50), Staphylococcus aureus-SMITH (GC 4543)", "setting": "[1]", "value": 0.07, "unit": "mg/kg"}, {"measurement": "median effective dose (ED50), Enterococcus faecalis (GC 6189)", "setting": "[2]", "value": 0.26, "unit": "mg/kg"}, {"measurement": "MIC Escherichia coli (ATCC 25922)", "setting": "Escherichia coli", "value": 32, "unit": "µg/mL"}, {"measurement": "MIC Escherichia coli (GC 4559)", "setting": "Escherichia coli", "value": 32, "unit": "µg/mL"}, {"measurement": "MIC Escherichia coli (GC 4560)", "setting": "Escherichia coli", "value": 0.5, "unit": "µg/mL"}, {"measurement": "MIC Enterococccus avium (GC 4558)", "setting": "Enterococcus sp.", "value": 2, "unit": "µg/mL"}, {"measurement": "MIC Enterococccus faecalis (ATCC 29212)", "setting": "Enterococcus sp.", "value": 2, "unit": "µg/mL"}, {"measurement": "MIC Enterococccus faecalis (GC 2691)", "setting": "Enterococcus sp.", "value": 2, "unit": "µg/mL"}, {"measurement": "MIC Enterococccus faecalis (GC 3059)", "setting": "Enterococcus sp.", "value": 2, "unit": "µg/mL"}, {"measurement": "MIC Enterococccus faecalis (GC 4552)", "setting": "Enterococcus sp.", "value": 2, "unit": "µg/mL"}, {"measurement": "MIC Enterococccus faecalis (GC 4553)", "setting": "Enterococcus sp.", "value": 2, "unit": "µg/mL"}, {"measurement": "MIC Enterococccus faecalis (GC 4554)", "setting": "Enterococcus sp.", "value": 2, "unit": "µg/mL"}, {"measurement": "MIC Enterococccus faecalis (GC 6189)", "setting": "Enterococcus sp.", "value": 2, "unit": "µg/mL"}, {"measurement": "MIC Enterococccus faecium (GC 2243)", "setting": "Enterococcus sp.", "value": 2, "unit": "µg/mL"}, {"measurement": "MIC Enterococccus faecium (GC 4556)", "setting": "Enterococcus sp.", "value": 2, "unit": "µg/mL"}, {"measurement": "MIC Enterococccus faecium (GC 4557)", "setting": "Enterococcus sp.", "value": 2, "unit": "µg/mL"}, {"measurement": "MIC Enterococcus faecalis (GC 2242)", "setting": "Enterococcus sp.", "value": 2, "unit": "µg/mL"}, {"measurement": "MIC Coagulase Negative Staphylococcus (GC 4547)", "setting": "Staphylococcus sp.; [3]", "value": 1, "unit": "µg/mL"}, {"measurement": "MIC Coagulase Negative Staphylococcus (GC 4548)", "setting": "Staphylococcus sp.; [3]", "value": 0.5, "unit": "µg/mL"}, {"measurement": "MIC Coagulase Negative Staphylococcus (GC 4549)", "setting": "Staphylococcus sp.; [3]", "value": 0.5, "unit": "µg/mL"}, {"measurement": "MIC Coagulase Negative Staphylococcus (GC 4551)", "setting": "Staphylococcus sp.; [3]", "value": 1, "unit": "µg/mL"}, {"measurement": "MIC Coagulase Negative Staphylococcus (GC 6257)", "setting": "Staphylococcus sp.; [3]", "value": 0.5, "unit": "µg/mL"}, {"measurement": "MIC Staphylococcus aureus-SMITH (GC 4543)", "setting": "Staphylococcus sp.; [3]", "value": 1, "unit": "µg/mL"}, {"measurement": "MIC Staphylococcus haemolyticus (GC 4546)", "setting": "Staphylococcus sp.; [3]", "value": 0.5, "unit": "µg/mL"}, {"measurement": "MIC Staphylococcus aureus (ATCC 29213)", "setting": "Staphylococcus sp.", "value": 1, "unit": "µg/mL"}, {"measurement": "MIC Staphylococcus aureus (ATCC 29213)", "setting": "Staphylococcus sp.; [4]", "value": 1, "unit": "µg/mL"}, {"measurement": "MIC Staphylococcus aureus (GC 1131)", "setting": "Staphylococcus sp.", "value": 1, "unit": "µg/mL"}, {"measurement": "MIC Staphylococcus aureus (GC 1131)", "setting": "Staphylococcus sp.; [4]", "value": 1, "unit": "µg/mL"}, {"measurement": "MIC Staphylococcus aureus (GC 3051)", "setting": "Staphylococcus sp.", "value": 1, "unit": "µg/mL"}, {"measurement": "MIC Staphylococcus aureus (GC 3051)", "setting": "Staphylococcus sp.; [4]", "value": 1, "unit": "µg/mL"}, {"measurement": "MIC Staphylococcus aureus (GC 3053)", "setting": "Staphylococcus sp.", "value": 1, "unit": "µg/mL"}, {"measurement": "MIC Staphylococcus aureus (GC 3053)", "setting": "Staphylococcus sp.; [4]", "value": 1, "unit": "µg/mL"}, {"measurement": "MIC Staphylococcus aureus (GC 4541)", "setting": "Staphylococcus sp.", "value": 1, "unit": "µg/mL"}, {"measurement": "MIC Staphylococcus aureus (GC 4541)", "setting": "Staphylococcus sp.; [4]", "value": 1, "unit": "µg/mL"}, {"measurement": "MIC Staphylococcus aureus (GC 4542)", "setting": "Staphylococcus sp.", "value": 1, "unit": "µg/mL"}, {"measurement": "MIC Staphylococcus aureus (GC 4542)", "setting": "Staphylococcus sp.; [4]", "value": 1, "unit": "µg/mL"}, {"measurement": "MIC Staphylococcus aureus-SMITH (GC 4543)", "setting": "Staphylococcus sp.; strain GC 4543, broth dilution, 18 hours at 35° C.", "value": 1, "unit": "µg/mL"}, {"measurement": "MIC Staphylococcus aureus (GC 4544)", "setting": "Staphylococcus sp.", "value": 2, "unit": "µg/mL"}, {"measurement": "MIC Staphylococcus aureus (GC 4544)", "setting": "Staphylococcus sp.; [4]", "value": 2, "unit": "µg/mL"}, {"measurement": "MIC Staphylococcus aureus (GC 4545)", "setting": "Staphylococcus sp.", "value": 1, "unit": "µg/mL"}, {"measurement": "MIC Staphylococcus aureus (GC 4545)", "setting": "Staphylococcus sp.; [4]", "value": 1, "unit": "µg/mL"}, {"measurement": "MIC Staphylococcus haemolyticus (GC 4546)", "setting": "Staphylococcus sp.; strain GC 4546, broth dilution, 18 hours at 35° C.", "value": 0.5, "unit": "µg/mL"}, {"measurement": "MIC Coagulase Negative Staphylococcus (GC 4547)", "setting": "Staphylococcus sp.; strain GC 4547, broth dilution, 18 hours at 35° C.", "value": 1, "unit": "µg/mL"}, {"measurement": "MIC Coagulase Negative Staphylococcus (GC 4548)", "setting": "Staphylococcus sp.; strain GC 4548, broth dilution, 18 hours at 35° C.", "value": 0.5, "unit": "µg/mL"}, {"measurement": "MIC Coagulase Negative Staphylococcus (GC 4549)", "setting": "Staphylococcus sp.; strain GC 4549, broth dilution, 18 hours at 35° C.", "value": 0.5, "unit": "µg/mL"}, {"measurement": "MIC Coagulase Negative Staphylococcus (GC 4551)", "setting": "Staphylococcus sp.; strain GC 4551, broth dilution, 18 hours at 35° C.", "value": 1, "unit": "µg/mL"}, {"measurement": "MIC Coagulase Negative Staphylococcus (GC 6257)", "setting": "Staphylococcus sp.; strain GC 6257, broth dilution, 18 hours at 35° C.", "value": 0.5, "unit": "µg/mL"}, {"measurement": "MIC Streptococcus agalactiae (GC 4564)", "setting": "Streptococcus sp.", "value": 0.25, "unit": "µg/mL"}, {"measurement": "MIC Streptococcus pneumoniae (GC 1894)", "setting": "Streptococcus sp.", "value": "<0.06", "unit": "µg/mL"}, {"measurement": "MIC Streptococcus pneumoniae (GC 4565)", "setting": "Streptococcus sp.", "value": "<0.06", "unit": "µg/mL"}, {"measurement": "MIC Streptococcus pneumonine (ATCC 6301)", "setting": "Streptococcus sp.", "value": "<0.06", "unit": "µg/mL"}, {"measurement": "MIC Streptococcus pyogenes (GC 4563)", "setting": "Streptococcus sp.", "value": 0.25, "unit": "µg/mL"}]}]}
